Laboratory results taken from patent publication US20240226072A1 (Stichting Het Nederlands Kanker Instituut, priority 2022, published 2024).

Legend:
[1] = Plasma pharmacokinetics and tissue distribution 2 h after oral cabazitaxel 10 mg/kg with vehicle or 25 mg/kg ritonavir in wild-type, Oatp1a/1b−/−, Oatp1a/1b/2b1−/−, OATP1B1- and OATP1B3-transgenic mice; type: in vivo; details: for reduction of SIC recovered percentage of dose corrected for the plasma AUC: vehicle + oral cabazitaxel 10 mg/kg, 2 h; for Cmax / Tmax / AUC(0-t): male, FVB, mouse, plasma, po, 10 mg/kg, vehicle pretreatment, oral 10 mg/kg cabazitaxel; for AUC(0-t): 0-2 h, read-out: AUC0-2 h
Description: All animals were fasted 2 to 3 hours prior to the start of the experiment to minimize variation in absorption after oral administration. […] Subsequently, cardiac puncture was performed with a heparinized needle and syringe collecting a final blood sample. […] All samples were stored at −30° C. until analysis.
Differences were considered statistically significant when P<0.05. All data are presented as geometric mean±SD.

[2] = Oatp1a/b−/− compared to wild-type mice after intravenous administration; Iusuf et al.; cited from earlier work
in vivo = details: male, mouse, po, 10 mg/kg; for AUC(0-t): AUC0-24 h
Description: The Jevtana (10 mg/mL) solution contains 0.26 mg/mL polysorbate 80 and 15% (w/v) ethanol, and is adjusted to pH 2-6 with citric acid. […] The stock solution was further diluted 5-fold with water to reach a 2.5 mg/mL dosing solution for oral administration. The vehicle solution only consists of polysorbate 80, ethanol and water (1:1:8, v/v/v). […] All dosing solutions were prepared freshly on the day of the experiment.
At the termination time point of 24 hours, mice were anesthetized using an isoflurane evaporator with 3% isoflurane with 0.8 L/min air and 0.3 L/min oxygen. A final blood sample was taken using cardiac puncture, using Eppendorf tubes previously prepared with heparin as an anticoagulant. Subsequently, the anesthetized mice were sacrificed by cervical dislocation and the tissues of interest were collected. Brain, liver, spleen, kidney, small intestine, and testis were collected. The small intestinal content (SIC) was separately collected by removing this from the small intestinal tissue, which was subsequently rinsed with saline to remove possibly fecal residue. The blood samples were centrifuged at 9,000×g for 6 minutes at 4° C., and the plasma fraction was isolated and stored at −30° C. until analysis. Brain, liver, spleen, kidney, small intestinal tissue, SIC, and testis were homogenized in a FastPrep-24™ 5G homogenizer (M. P. Biomedicals, Santa Ana, CA, USA) for 1 min with 1, 3, 1, 2, 3, 2, and 1 mL of 2% (w/v) BSA in Milli-Q water, respectively. Until analysis of the samples, they were all stored at −30° C.
Pharmacokinetic parameters were estimated by non-compartmental analysis using the software package of PK solutions 2.0.2 (SUMMIT, Research Service). The area under the curve (AUC) of the plasma-concentration time curve for all the compounds was calculated using the linear trapezoidal rule without extrapolating to infinity. The peak plasma concentration (Cmax) and the time to reach peak plasma concentration (Tmax) were obtained directly from the individual raw data. For the statistical analysis and the graphs GraphPad Prism 9 (GraphPad Software Inc., La Jolla, CA, USA) was used. The statistics for the comparison of multiple groups were calculated with the one-way analysis of variance (ANOVA), whereas Sidak's post hoc correction was performed. Log-transformation before statistical analysis was applied, when variances within the groups were not homogeneously distributed. Differences were considered statistically significant when P<0.05. All data are presented as geometric mean±SD.

[3] = chemically castrated men compared to non-castrated patients; cited from earlier work
[4] = Cyp3aXAV (human CYP3A in Cyp3a−/−, FVB background)

reduction of SIC recovered percentage of dose corrected for the plasma AUC ([1]; Oatp1a/1b/2b1−/− compared to wild-type mice): 2.9 fold
reduction of SIC recovered percentage of dose corrected for the plasma AUC ([1]; Oatp1a/1b−/− compared to wild-type mice): 4.0 fold
Cmax ([1]; OATP1B1-transgenic mice): 206 ± 105 nM
Tmax ([1]; OATP1B1-transgenic mice): 35 min
AUC(0-t) ([1]; OATP1B1-transgenic mice): 0.271 ± 0.144 µM·h
Cmax ([1]; OATP1B3-transgenic mice): 248 ± 145 nM
Tmax ([1]; OATP1B3-transgenic mice): 45 min
AUC(0-t) ([1]; OATP1B3-transgenic mice): 0.305 ± 0.177 µM·h
Cmax ([1]; Oatp1a/1b/2b1−/− mice): 202 ± 65 nM
Tmax ([1]; Oatp1a/1b/2b1−/− mice): 35 min
AUC(0-t) ([1]; Oatp1a/1b/2b1−/− mice): 0.252 ± 0.069 µM·h
Cmax ([1]; Oatp1a/1b−/− mice): 191 ± 43 nM
Tmax ([1]; Oatp1a/1b−/− mice): 35 min
AUC(0-t) ([1]; Oatp1a/1b−/− mice): 0.216 ± 0.047 µM·h
Cmax ([1]; wild-type mice): 84 ± 30 nM
Tmax ([1]; wild-type mice): 25 min
AUC(0-t) ([1]; wild-type mice): 0.091 ± 0.043 µM·h
AUC0-24 h (in vivo; [4]): 0.271 µM·h
AUC(0-t) (in vivo; [4]): 0.285 µM·h
AUC(0-t) (in vivo; FVB, Cyp3aXAV): 0.681 µM·h
AUC(0-t) (in vivo; FVB, wild-type): 0.707 µM·h
Cmax (in vivo; FVB, wild-type, Cmax): 119 nM
Structure (SMILES): CC(=O)O[C@@]12CO[C@@H]1C[C@H](O)[C@@]1(C)C(=O)[C@H](O)C3=C(C)[C@@H](OC(=O)[C@H](O)[C@@H](NC(=O)OC(C)(C)C)c4ccccc4)C[C@@](O)([C@@H](OC(=O)c4ccccc4)[C@H]21)C3(C)C [docetaxel]
increase in plasma AUC [2]: 3 fold
reduction of plasma AUC [3]: 2 fold
